# Measurements taken from publication PMC9133015 (Nature Communications, 2022).
# Where “and” joins values, the source holds several entries; their conditions need not be identical. Equal entries are not always repeated. Where two headings read alike, the source gives them in different places.
# What was measured:
# Assay in all cases: Kinase inhibitor specificity profiling (Reaction Biology Corporation)
# Format in all cases: biochemical
# Parameters in all cases: % Enzyme Activity (relative to DMSO controls): concentration or dose not given beside the values
# [1] = molecular target: T1, panel of 370 protein kinases (Homo sapiens, UniProt P10721); conditions: 2 h, kinase c-Kit; read-out: % Enzyme Activity (relative to DMSO controls)
# T1 construct: purchased Reaction Biology Corporation (assay service)
# [2] = molecular target: T2, panel of 370 protein kinases (Homo sapiens, UniProt P37023); conditions: 2 h, kinase ALK1/ACVRL1; read-out: % Enzyme Activity (relative to DMSO controls)
# T2 construct: purchased Reaction Biology Corporation (assay service)
# [3] = molecular target: T3, panel of 370 protein kinases (Homo sapiens, UniProt Q9UBE8); conditions: 2 h, kinase NLK; read-out: % Enzyme Activity (relative to DMSO controls)
# T3 construct: purchased Reaction Biology Corporation (assay service)
# [4] = molecular target: T4, panel of 370 protein kinases (Homo sapiens, UniProt Q08345); conditions: 2 h, kinase DDR1; read-out: % Enzyme Activity (relative to DMSO controls)
# T4 construct: purchased Reaction Biology Corporation (assay service)
# [5] = molecular target: T5, panel of 370 protein kinases (Homo sapiens, UniProt P42685); conditions: 2 h, kinase FRK/PTK5; read-out: % Enzyme Activity (relative to DMSO controls)
# T5 construct: purchased Reaction Biology Corporation (assay service)
# [6] = molecular target: T6, panel of 370 protein kinases (Homo sapiens, UniProt Q9UEW8); conditions: 2 h, kinase STK39/STLK3; read-out: % Enzyme Activity (relative to DMSO controls)
# T6 construct: purchased Reaction Biology Corporation (assay service)
# [7] = molecular target: T7, panel of 370 protein kinases (Homo sapiens, UniProt P51451); conditions: 2 h, kinase BLK; read-out: % Enzyme Activity (relative to DMSO controls)
# T7 construct: purchased Reaction Biology Corporation (assay service)
# T7 sequence (P51451 whole entry): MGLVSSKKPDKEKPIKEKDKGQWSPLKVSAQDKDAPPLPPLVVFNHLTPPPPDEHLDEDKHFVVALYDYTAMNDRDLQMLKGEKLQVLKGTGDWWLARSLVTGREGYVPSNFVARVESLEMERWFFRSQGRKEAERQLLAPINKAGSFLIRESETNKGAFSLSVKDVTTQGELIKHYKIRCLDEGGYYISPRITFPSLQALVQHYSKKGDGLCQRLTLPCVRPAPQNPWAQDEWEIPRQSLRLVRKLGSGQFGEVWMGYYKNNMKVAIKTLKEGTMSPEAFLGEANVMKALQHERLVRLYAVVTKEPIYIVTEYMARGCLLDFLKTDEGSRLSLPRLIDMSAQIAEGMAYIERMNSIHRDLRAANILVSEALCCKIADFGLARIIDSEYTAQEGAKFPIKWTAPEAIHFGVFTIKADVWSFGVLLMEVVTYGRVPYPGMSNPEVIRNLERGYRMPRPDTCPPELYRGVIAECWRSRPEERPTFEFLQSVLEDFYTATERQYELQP
# [8] = molecular target: T8, panel of 370 protein kinases (Homo sapiens, UniProt Q9UPZ9); conditions: 2 h, kinase LCK2/ICK; read-out: % Enzyme Activity (relative to DMSO controls)
# T8 construct: purchased Reaction Biology Corporation (assay service)
# [9] = molecular target: T9, panel of 370 protein kinases (Homo sapiens, UniProt P50750); conditions: 2 h, read-out: % Enzyme Activity (relative to DMSO controls)
# T9 construct: purchased Reaction Biology Corporation (assay service)
# T9 sequence (P50750 whole entry): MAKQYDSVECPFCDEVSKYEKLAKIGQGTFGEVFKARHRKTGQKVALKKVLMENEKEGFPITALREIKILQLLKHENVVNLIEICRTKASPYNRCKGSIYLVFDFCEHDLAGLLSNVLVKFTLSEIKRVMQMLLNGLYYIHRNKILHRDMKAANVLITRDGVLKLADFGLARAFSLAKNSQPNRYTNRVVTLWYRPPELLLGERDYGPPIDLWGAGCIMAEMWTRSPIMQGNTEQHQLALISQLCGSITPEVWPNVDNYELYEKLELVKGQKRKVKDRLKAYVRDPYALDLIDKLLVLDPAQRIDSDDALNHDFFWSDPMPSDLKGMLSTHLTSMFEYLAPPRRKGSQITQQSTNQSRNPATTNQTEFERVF
# [10] = molecular target: T10, panel of 370 protein kinases (Homo sapiens, UniProt Q00534); conditions: 2 h, read-out: % Enzyme Activity (relative to DMSO controls)
# T10 construct: purchased Reaction Biology Corporation (assay service)
# T10 sequence (Q00534 whole entry): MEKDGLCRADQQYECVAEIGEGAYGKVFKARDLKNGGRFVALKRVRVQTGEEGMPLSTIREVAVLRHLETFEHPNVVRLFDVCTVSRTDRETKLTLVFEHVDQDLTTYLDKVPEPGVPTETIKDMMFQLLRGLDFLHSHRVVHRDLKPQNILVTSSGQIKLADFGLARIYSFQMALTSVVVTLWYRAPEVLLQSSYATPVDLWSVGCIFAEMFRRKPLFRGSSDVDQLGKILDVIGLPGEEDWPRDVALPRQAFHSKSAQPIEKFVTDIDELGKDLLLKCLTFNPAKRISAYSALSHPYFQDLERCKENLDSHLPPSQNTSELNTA
# [11] = molecular target: T11, panel of 370 protein kinases (Homo sapiens, UniProt Q15835); conditions: 2 h, kinase GRK1; read-out: % Enzyme Activity (relative to DMSO controls)
# T11 construct: purchased Reaction Biology Corporation (assay service)
# [12] = molecular target: T12, panel of 370 protein kinases (Homo sapiens, UniProt Q9H0K1); conditions: 2 h, kinase SIK2; read-out: % Enzyme Activity (relative to DMSO controls)
# T12 construct: purchased Reaction Biology Corporation (assay service)
# [13] = molecular target: T13, panel of 370 protein kinases (Homo sapiens, UniProt Q6P5Z2); conditions: kinase PKN3/PRK3
# T13 construct: purchased Reaction Biology Corporation (assay service)
# T13 sequence (Q6P5Z2 whole entry): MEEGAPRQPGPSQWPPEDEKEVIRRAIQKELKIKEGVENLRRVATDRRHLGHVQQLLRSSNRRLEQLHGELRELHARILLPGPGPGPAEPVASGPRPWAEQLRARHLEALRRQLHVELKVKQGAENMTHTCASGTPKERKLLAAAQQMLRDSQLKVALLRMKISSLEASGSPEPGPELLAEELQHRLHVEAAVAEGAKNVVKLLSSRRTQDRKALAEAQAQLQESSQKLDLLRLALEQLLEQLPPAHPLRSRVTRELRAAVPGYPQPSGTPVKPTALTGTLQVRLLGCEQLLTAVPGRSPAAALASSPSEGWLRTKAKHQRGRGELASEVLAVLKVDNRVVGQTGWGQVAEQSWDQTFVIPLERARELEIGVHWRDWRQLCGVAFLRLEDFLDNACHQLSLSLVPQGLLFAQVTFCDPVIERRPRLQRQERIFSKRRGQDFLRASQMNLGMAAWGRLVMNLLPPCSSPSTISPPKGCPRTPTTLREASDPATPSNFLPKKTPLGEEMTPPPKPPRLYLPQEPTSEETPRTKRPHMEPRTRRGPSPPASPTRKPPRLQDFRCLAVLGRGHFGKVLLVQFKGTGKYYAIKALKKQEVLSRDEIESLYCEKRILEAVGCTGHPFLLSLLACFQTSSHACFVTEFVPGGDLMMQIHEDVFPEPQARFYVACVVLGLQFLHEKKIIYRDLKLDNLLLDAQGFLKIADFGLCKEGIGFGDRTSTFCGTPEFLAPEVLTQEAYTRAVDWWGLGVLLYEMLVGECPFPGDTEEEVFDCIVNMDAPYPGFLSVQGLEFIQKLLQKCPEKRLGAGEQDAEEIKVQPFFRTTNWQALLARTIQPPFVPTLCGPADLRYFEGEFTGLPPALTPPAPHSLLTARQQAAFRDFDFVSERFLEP
# [14] = molecular target: T14, panel of 370 protein kinases (Homo sapiens, UniProt P06241); conditions: 2 h, kinase FYN; read-out: % Enzyme Activity (relative to DMSO controls)
# T14 construct: purchased Reaction Biology Corporation (assay service)
# [15] = molecular target: T15, panel of 370 protein kinases (Homo sapiens, UniProt Q9NY57); conditions: 2 h, kinase STK32B/YANK2; read-out: % Enzyme Activity (relative to DMSO controls)
# T15 construct: purchased Reaction Biology Corporation (assay service)
# T15 sequence (Q9NY57 whole entry): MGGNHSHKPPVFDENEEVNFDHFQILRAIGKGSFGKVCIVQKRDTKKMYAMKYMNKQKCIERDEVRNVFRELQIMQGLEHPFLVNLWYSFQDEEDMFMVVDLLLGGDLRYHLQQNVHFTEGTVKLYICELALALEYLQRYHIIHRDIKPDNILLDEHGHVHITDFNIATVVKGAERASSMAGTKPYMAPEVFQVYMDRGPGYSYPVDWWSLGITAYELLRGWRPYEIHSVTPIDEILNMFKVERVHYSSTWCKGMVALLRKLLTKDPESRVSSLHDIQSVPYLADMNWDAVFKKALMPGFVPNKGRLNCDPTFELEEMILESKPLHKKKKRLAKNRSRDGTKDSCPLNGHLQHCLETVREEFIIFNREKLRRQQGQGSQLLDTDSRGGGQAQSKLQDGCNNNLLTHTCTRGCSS
# [16] = molecular target: T16, panel of 370 protein kinases (Homo sapiens, UniProt P09619); conditions: 2 h, kinase PDGFRb; read-out: % Enzyme Activity (relative to DMSO controls)
# T16 construct: purchased Reaction Biology Corporation (assay service)
# [17] = molecular target: T17, panel of 370 protein kinases (Homo sapiens, UniProt Q16644); conditions: 2 h, kinase MAPKAPK3; read-out: % Enzyme Activity (relative to DMSO controls)
# T17 construct: purchased Reaction Biology Corporation (assay service)
# T17 sequence (Q16644 whole entry): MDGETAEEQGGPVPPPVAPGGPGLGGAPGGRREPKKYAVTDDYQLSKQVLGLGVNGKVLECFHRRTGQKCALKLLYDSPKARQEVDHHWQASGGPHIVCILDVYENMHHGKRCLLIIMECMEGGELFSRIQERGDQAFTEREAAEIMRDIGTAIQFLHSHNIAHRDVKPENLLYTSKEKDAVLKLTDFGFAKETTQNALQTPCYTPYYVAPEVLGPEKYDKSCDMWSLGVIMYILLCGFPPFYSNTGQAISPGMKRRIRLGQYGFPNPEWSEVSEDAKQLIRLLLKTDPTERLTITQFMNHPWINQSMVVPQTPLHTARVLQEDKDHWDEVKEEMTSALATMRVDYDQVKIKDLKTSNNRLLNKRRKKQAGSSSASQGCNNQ
# [18] = molecular target: T18, panel of 370 protein kinases (Homo sapiens, UniProt P00533); conditions: kinase EGFR
# T18 construct: purchased Reaction Biology Corporation (assay service)
# T18 sequence (P00533 25-1210): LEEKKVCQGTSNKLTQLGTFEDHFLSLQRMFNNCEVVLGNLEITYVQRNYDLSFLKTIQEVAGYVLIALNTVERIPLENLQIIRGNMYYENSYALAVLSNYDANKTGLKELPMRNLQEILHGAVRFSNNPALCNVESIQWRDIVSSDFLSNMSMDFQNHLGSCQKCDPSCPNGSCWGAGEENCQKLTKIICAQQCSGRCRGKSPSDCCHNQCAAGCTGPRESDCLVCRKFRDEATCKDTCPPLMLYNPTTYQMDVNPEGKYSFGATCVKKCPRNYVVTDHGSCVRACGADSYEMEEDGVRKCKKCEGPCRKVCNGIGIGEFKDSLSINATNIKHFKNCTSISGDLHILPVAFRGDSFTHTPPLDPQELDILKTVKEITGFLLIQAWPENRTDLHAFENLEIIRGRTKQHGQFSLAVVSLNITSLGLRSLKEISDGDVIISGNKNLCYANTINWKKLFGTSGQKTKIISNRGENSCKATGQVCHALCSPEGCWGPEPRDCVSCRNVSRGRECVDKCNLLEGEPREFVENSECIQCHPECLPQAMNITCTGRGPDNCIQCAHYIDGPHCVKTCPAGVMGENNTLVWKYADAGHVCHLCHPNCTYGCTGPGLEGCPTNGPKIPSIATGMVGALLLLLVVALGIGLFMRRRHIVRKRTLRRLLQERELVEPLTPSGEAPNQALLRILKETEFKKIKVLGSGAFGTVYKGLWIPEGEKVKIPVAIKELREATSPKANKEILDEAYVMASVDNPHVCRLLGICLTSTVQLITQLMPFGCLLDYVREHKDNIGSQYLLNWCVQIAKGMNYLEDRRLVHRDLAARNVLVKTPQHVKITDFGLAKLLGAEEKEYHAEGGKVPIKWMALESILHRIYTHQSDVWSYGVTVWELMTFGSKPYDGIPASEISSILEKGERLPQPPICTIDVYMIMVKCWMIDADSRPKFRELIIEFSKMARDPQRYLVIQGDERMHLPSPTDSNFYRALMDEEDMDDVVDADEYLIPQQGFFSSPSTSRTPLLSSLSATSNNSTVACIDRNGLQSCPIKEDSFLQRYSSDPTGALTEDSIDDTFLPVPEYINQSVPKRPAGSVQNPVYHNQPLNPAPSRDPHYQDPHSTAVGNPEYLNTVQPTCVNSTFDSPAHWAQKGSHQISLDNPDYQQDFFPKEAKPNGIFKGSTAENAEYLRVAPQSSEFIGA
# [19] = molecular target: T19, panel of 370 protein kinases (Homo sapiens, UniProt Q52WX2); conditions: 2 h, kinase SBK1; read-out: % Enzyme Activity (relative to DMSO controls)
# T19 construct: purchased Reaction Biology Corporation (assay service)
# [20] = molecular target: T20, panel of 370 protein kinases (Homo sapiens, UniProt Q6VAB6); conditions: 2 h, kinase KSR2; read-out: % Enzyme Activity (relative to DMSO controls)
# T20 construct: purchased Reaction Biology Corporation (assay service)
# T20 sequence (Q6VAB6 whole entry): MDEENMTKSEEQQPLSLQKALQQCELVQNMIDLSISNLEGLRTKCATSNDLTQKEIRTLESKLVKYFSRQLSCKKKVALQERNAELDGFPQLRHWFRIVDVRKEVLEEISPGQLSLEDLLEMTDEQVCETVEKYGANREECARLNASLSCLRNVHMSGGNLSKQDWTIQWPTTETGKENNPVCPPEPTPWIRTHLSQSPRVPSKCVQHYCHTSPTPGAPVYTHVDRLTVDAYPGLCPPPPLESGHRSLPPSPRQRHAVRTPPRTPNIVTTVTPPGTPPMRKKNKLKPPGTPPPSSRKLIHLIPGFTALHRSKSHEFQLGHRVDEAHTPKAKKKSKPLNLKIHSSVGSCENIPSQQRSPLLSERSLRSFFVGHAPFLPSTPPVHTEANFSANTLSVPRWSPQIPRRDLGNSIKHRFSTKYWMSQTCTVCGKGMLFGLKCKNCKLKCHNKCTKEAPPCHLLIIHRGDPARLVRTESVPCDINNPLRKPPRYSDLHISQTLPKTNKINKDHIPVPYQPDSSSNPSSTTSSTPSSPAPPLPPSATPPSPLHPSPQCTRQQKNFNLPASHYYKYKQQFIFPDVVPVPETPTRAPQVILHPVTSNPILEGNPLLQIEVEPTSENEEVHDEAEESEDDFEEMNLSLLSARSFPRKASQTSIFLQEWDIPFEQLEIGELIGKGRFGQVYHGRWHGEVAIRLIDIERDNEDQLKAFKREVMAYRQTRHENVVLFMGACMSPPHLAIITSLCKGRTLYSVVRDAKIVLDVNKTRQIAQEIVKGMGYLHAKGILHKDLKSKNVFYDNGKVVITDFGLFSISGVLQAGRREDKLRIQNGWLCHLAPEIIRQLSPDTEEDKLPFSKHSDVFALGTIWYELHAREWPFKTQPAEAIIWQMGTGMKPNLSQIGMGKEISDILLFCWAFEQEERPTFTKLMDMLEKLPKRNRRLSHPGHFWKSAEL
# [21] = molecular target: T21, panel of 370 protein kinases (Homo sapiens, UniProt Q9Y2U5); conditions: 2 h, kinase MEKK2; read-out: % Enzyme Activity (relative to DMSO controls)
# T21 construct: purchased Reaction Biology Corporation (assay service)
compound,measurement,setting,value
CCN1CCN(C(=O)c2ccc(Nc3ncc(F)c(-c4ccc5nc(N(C)C)sc5c4)n3)nc2)CC1 [YK-2-69],remaining activity at 1 µM,[1],94%
same,remaining activity at 1 µM,[2],106%
same,remaining activity at 1 µM,[3],97%
same,remaining activity at 1 µM,[4],86.2%
same,remaining activity at 1 µM,[5],108%
same,remaining activity at 1 µM,[6],39.9%
same,remaining activity at 1 µM,[7],100%
same,remaining activity at 1 µM,[8],99.2%
same,remaining activity at 1 µM,[9]; kinase CDK9/CYCLIN K,96.3%
same,remaining activity at 1 µM,[9]; kinase CDK9/cyclin T1,90.8%
same,remaining activity at 1 µM,[9]; kinase CDK9/cyclin T2,96.8%
same,remaining activity at 1 µM,[10]; kinase CDK6/cyclin D1,8.21%
same,remaining activity at 1 µM,[10]; kinase CDK6/cyclin D3,71.9%
same,remaining activity at 1 µM,[11],97.2%
same,remaining activity at 1 µM,[12],95.6%
same,% Enzyme Activity (relative to DMSO controls),[13],103.56% and 103.10%
same,remaining activity at 1 µM,[14],104%
same,remaining activity at 1 µM,[15],103%
same,remaining activity at 1 µM,[16],97.5%
same,remaining activity at 1 µM,[17],116%
same,% Enzyme Activity (relative to DMSO controls),[18],109.51% and 108.13%
same,remaining activity at 1 µM,[19],103%
same,remaining activity at 1 µM,[20],93%
same,remaining activity at 1 µM,[21],113%
